Source: patent publication US11504396B2 (NKMAX Co., Ltd., priority 2016, dated 2022)
Like-named read-outs stand apart in the source and are kept apart here. The star is where a group is joined. Cbz = O=C(OCc1ccccc1)*; CH2F = FC*

What was measured:
[1] = tested on: HCT-15 (colon cancer) cells; test: Cytotoxicity of NK cells after TGF-β receptor inhibitor treatment (HCT-15); format: cell-based; conditions: NK cells treated with LY2157299 100 nM for 24 hours, co-cultured 48 hours
Procedure: (§1) NK cells are treated with LY2157299 (100 nM), a compound inhibiting kinases related to TGF-β receptor signaling, for 24 hours and then co-cultured with SK-4 (stomach cancer) or HCT-15 (colon cancer) cells for 48 hours.

[2] = tested on: sGITRL-induced NK cell death; test: NK cell survival after sGITRL treatment (trypan blue); format: cell-based, human; conditions: then 5 ng/mL sGITRL for two days
[3] = tested on: TGF-β-induced NK cell death; test: NK cell survival after TGF-β treatment (trypan blue); format: cell-based, human; conditions: FIG. 1E; LY2157299 100 nM pretreatment 24 hours, then 1 ng/mL TGF-β for two days
[4] = tested on: SK-4 (stomach cancer) cells; test: Cytotoxicity of NK cells after TGF-β receptor inhibitor treatment (SK-4); format: cell-based; conditions: NK cells treated with LY2157299 100 nM for 24 hours, co-cultured 48 hours
Procedure: as §1

[5] = tested on: SNU-245 (the biliary tract cancer cell line); test: 2 day cytotoxicity assay against SNU-245 cells (pretreated or formulated NK cells, or ponatinib alone)
[6] = tested on: SNU-387 (the liver cancer cell line); test: 2 day cytotoxicity assay of kinase inhibitor pretreated NK cells against SNU-387
[7] = tested on: human NK cells; conditions: cited from earlier work; for NK cytotoxicity / NK cytokine production: direct exposure of human NK cells with pharmacological doses, in vitro (Krieg and Ullrich 2013)
[8] = tested on: MDA-MB-231 (the breast cancer cell line); conditions: FIG. 6B; pretreatment 24 hrs (30, 100 and 300 μM); E:T 0.5:1, 48 hrs
[9] = tested on: AGS (the stomach cancer cell line); conditions: FIG. 6A; pretreatment 24 hrs (30, 100 and 300 μM); E:T 0.5:1, 48 hrs
[10] = tested on: NCI-H1299 (lung cancer) cells; test: Cytotoxicity of NK cells after caspase-8 inhibitor treatment (NCI-H1299); format: cell-based; conditions: NK cells treated with Z-IETD-FMK 2 μM for 24 hours, co-cultured 48 hours
Procedure: (§2) NK cells are treated with Z-IETD-FMK (2 μM), an inhibitory peptide against apoptosis-related activity of Caspase-8, for 24 hours and then co-cultured with NCI-H1299 (lung cancer) or PC-3 (prostate cancer) cells for 48 hours.

[11] = tested on: PC-3 (prostate cancer) cells; test: Cytotoxicity of NK cells after caspase-8 inhibitor treatment (PC-3); format: cell-based; conditions: NK cells treated with Z-IETD-FMK 2 μM for 24 hours, co-cultured 48 hours
Procedure: as §2

[12] = tested on: Fas-L-induced NK cell death; test: NK cell survival after Fas-L treatment (trypan blue); format: cell-based, human; conditions: FIG. 1D; Z-IETD-FMK 2 μM pretreatment 24 hours, then 5 ng/mL Fas-L for two days
[13] = FIG. 7A, pretreatment 24 hrs, E:T 0.5:1, 48 hrs
[14] = FIG. 7B, pretreatment 24 hrs, E:T 0.5:1, 48 hrs
[15] = resting and IL-2-activated NK cells (Krusch et al. 2009)

Cc1cccc(-c2nn3c(c2-c2ccnc4ccc(C(N)=O)cc24)CCC3)n1 [LY2157299]
Cytotoxicity of NK Cells to HCT-15 Cells ([1]; E:T = 0.1:1, W/ IL-2): 86%
Cytotoxicity of NK Cells to HCT-15 Cells ([1]; E:T = 0.1:1, W/O IL-2): 68%
Cytotoxicity of NK Cells to HCT-15 Cells ([1]; E:T = 05:1, W/ IL-2): 98%
Cytotoxicity of NK Cells to HCT-15 Cells ([1]; E:T = 05:1, W/O IL-2): 82%
cell death induced by sGITRL (NK cell survival rate) ([2]; FIG. 1E, LY2157299 100 nM pretreatment 24 hours): suppressed cell death
cell death induced by TGF-β (NK cell survival rate) [3]: suppressed cell death
Cytotoxicity of NK Cells to SK-4 Cells ([4]; E:T = 0.1:1, With IL-2): 39%
Cytotoxicity of NK Cells to SK-4 Cells ([4]; E:T = 0.1:1, Without IL-2): 27%
Cytotoxicity of NK Cells to SK-4 Cells ([4]; E:T = 05:1, With IL-2): 59%
Cytotoxicity of NK Cells to SK-4 Cells ([4]; E:T = 05:1, Without IL-2): 35%

COc1cc(Nc2c(C#N)cnc3cc(OCCCN4CCN(C)CC4)c(OC)cc23)c(Cl)cc1Cl [bosutinib]
anti-cancer cytotoxicity of kinase inhibitor pretreated NK cells against SNU-245 vs untreated NK cells [5, 13]: did not increase
anti-cancer cytotoxicity of kinase inhibitor pretreated NK cells against SNU-387 vs untreated NK cells [6, 14]: did not increase

Cc1nc(Nc2ncc(C(=O)Nc3c(C)cccc3Cl)s2)cc(N2CCN(CCO)CC2)n1 [dasatinib]
NK cytotoxicity [7]: abrogated cytotoxicity
anti-cancer cytotoxicity of kinase inhibitor pretreated NK cells against SNU-245 vs untreated NK cells [5, 13]: slightly increased anticancer activity
anti-cancer cytotoxicity of kinase inhibitor pretreated NK cells against SNU-387 vs untreated NK cells [6, 14]: did not increase
anti-cancer cytotoxicity of kinase inhibitor pretreated NK cells against MDA-MB-231 vs untreated NK cells [8]: did not show any differences
anti-cancer cytotoxicity of kinase inhibitor pretreated NK cells against AGS vs untreated NK cells [9]: did not show any differences

Cc1ccc(NC(=O)c2ccc(CN3CCN(C)CC3)cc2)cc1Nc1nccc(-c2cccnc2)n1 [imatinib]
NK cytokine production [7]: no impact
NK cytotoxicity [7]: no impact
anti-cancer cytotoxicity of kinase inhibitor pretreated NK cells against SNU-245 vs untreated NK cells [5, 13]: did not increase
anti-cancer cytotoxicity of kinase inhibitor pretreated NK cells against SNU-387 vs untreated NK cells [6, 14]: did not increase
anti-cancer cytotoxicity of kinase inhibitor pretreated NK cells against MDA-MB-231 vs untreated NK cells [8]: did not show any differences
anti-cancer cytotoxicity of kinase inhibitor pretreated NK cells against AGS vs untreated NK cells [9]: did not show any differences

Cc1cn(-c2cc(NC(=O)c3ccc(C)c(Nc4nccc(-c5cccnc5)n4)c3)cc(C(F)(F)F)c2)cn1 [nilotinib]
NK cytokine production [7]: negatively influenced
anti-cancer cytotoxicity of kinase inhibitor pretreated NK cells against SNU-245 vs untreated NK cells [5, 13]: did not increase
anti-cancer cytotoxicity of kinase inhibitor pretreated NK cells against SNU-387 vs untreated NK cells [6, 14]: did not increase
anti-cancer cytotoxicity of kinase inhibitor pretreated NK cells against MDA-MB-231 vs untreated NK cells [8]: did not show any differences
anti-cancer cytotoxicity of kinase inhibitor pretreated NK cells against AGS vs untreated NK cells [9]: did not show any differences

CNC(=O)c1cc(Oc2ccc(NC(=O)Nc3ccc(Cl)c(C(F)(F)F)c3)cc2)ccn1 [sorafenib]
IFN-γ production of NK cells in response to tumor targets [7, 15]: concentration dependently inhibited
cytotoxicity of NK cells in response to tumor targets [7, 15]: concentration dependently inhibited
anti-cancer cytotoxicity of kinase inhibitor pretreated NK cells against SNU-245 vs untreated NK cells [5, 13]: did not increase
anti-cancer cytotoxicity of kinase inhibitor pretreated NK cells against SNU-387 vs untreated NK cells [6, 14]: did not increase
anti-cancer cytotoxicity of kinase inhibitor pretreated NK cells against MDA-MB-231 vs untreated NK cells [8]: did not show any differences
anti-cancer cytotoxicity of kinase inhibitor pretreated NK cells against AGS vs untreated NK cells [9]: did not show any differences

CCN(CC)CCNC(=O)c1c(C)[nH]c(/C=C2\C(=O)Nc3ccc(F)cc32)c1C [sunitinib]
cytotoxicity of NK cells in response to tumor targets [7]: concentration dependently inhibited
anti-cancer cytotoxicity of kinase inhibitor pretreated NK cells against SNU-245 vs untreated NK cells [5]: did not increase
anti-cancer cytotoxicity of kinase inhibitor pretreated NK cells against SNU-387 vs untreated NK cells [6]: did not increase
anti-cancer cytotoxicity of kinase inhibitor pretreated NK cells against MDA-MB-231 vs untreated NK cells [8]: did not show any differences
anti-cancer cytotoxicity of kinase inhibitor pretreated NK cells against AGS vs untreated NK cells [9]: did not show any differences

COc1cc2c(Nc3ccc(Br)cc3F)ncnc2cc1OCC1CCN(C)CC1 [vandetanib]
anti-cancer cytotoxicity of kinase inhibitor pretreated NK cells against SNU-245 vs untreated NK cells [5, 13]: did not increase
anti-cancer cytotoxicity of kinase inhibitor pretreated NK cells against SNU-387 vs untreated NK cells [6, 14]: did not increase

Cbz-IETD-CH2F
Cytotoxicity of NK Cells to NCI-H1299 Cells ([10]; E:T = 0.1:1, With IL-2): 33%
Cytotoxicity of NK Cells to NCI-H1299 Cells ([10]; E:T = 0.1:1, Without IL-2): 25%
Cytotoxicity of NK Cells to NCI-H1299 Cells ([10]; E:T = 0.5:1, With IL-2): 58%
Cytotoxicity of NK Cells to NCI-H1299 Cells ([10]; E:T = 0.5:1, Without IL-2): 34%
Cytotoxicity of NK Cells to PC-3 Cells ([11]; E:T = 0.1:1, W/ IL-2): 76%
Cytotoxicity of NK Cells to PC-3 Cells ([11]; E:T = 0.1:1, W/O IL-2): 48%
Cytotoxicity of NK Cells to PC-3 Cells ([11]; E:T = 0.5:1, W/ IL-2): 96%
Cytotoxicity of NK Cells to PC-3 Cells ([11]; E:T = 0.5:1, W/O IL-2): 78%
cell death induced by Fas-L (NK cell survival rate) [12]: suppressed cell death
cell death induced by sGITRL (NK cell survival rate) ([2]; FIG. 1D, Z-IETD-FMK 2 μM pretreatment 24 hours): suppressed cell death
